Laboratory results: ChEMBL document CHEMBL4334435, “A focused structure-activity relationship study of psoralen-based immunoproteasome inhibitors” (Medchemcomm, 2019)
Active and inactive are the calls of the source. No cut-off for these calls is given here.

Assays:
[1] = target: T1, Proteasome subunit beta type-8 (Homo sapiens) (UniProt P28062); test: Reversible inhibition of human immunoproteasome beta 5i subunit assessed as recovery of enzyme activity at 45 nM using Suc-LLVY-AMC as substrate preincubated for 30 mins followed by 100-fold diluted substrate addition by rapid dilution assay relative to control; parameters: scale not given: the % may be the effect or the level left
T1 sequence (whole entry): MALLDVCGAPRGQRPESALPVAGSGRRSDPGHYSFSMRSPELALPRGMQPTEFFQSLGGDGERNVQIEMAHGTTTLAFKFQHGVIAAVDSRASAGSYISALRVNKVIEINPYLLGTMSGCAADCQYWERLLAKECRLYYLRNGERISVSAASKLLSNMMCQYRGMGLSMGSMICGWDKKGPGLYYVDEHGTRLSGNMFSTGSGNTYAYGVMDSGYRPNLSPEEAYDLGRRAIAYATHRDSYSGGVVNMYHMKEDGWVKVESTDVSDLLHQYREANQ

PBMC [2] = test: Inhibition of LPS-induced IL-8 production in human PBMC at 50 nM preincubated for 1 hr followed by LPS addition and measured after 24 hrs by cytometric bead array-based FACS analysis; format: functional, cell-based
PBMC [3] = test: Inhibition of LPS-induced IL-1beta production in human PBMC at 50 nM preincubated for 1 hr followed by LPS addition and measured after 24 hrs by cytometric bead array-based FACS analysis; format: functional, cell-based
PBMC [4] = test: Inhibition of LPS-induced IL-6 secretion in human PBMC at 50 nM preincubated for 1 hr followed by LPS addition and measured after 24 hrs by cytometric bead array-based FACS analysis; format: functional, cell-based
PBMC [5] = test: Inhibition of LPS-induced IL-10 secretion in human PBMC at 50 nM preincubated for 1 hr followed by LPS addition and measured after 24 hrs by cytometric bead array-based FACS analysis; format: functional, cell-based
PBMC [6] = test: Inhibition of LPS-induced IL-12p70 production in human PBMC at 50 nM preincubated for 1 hr followed by LPS addition and measured after 24 hrs by cytometric bead array-based FACS analysis; format: functional, cell-based
PBMC [7] = test: Inhibition of LPS-induced TNFalpha production in human PBMC at 50 nM preincubated for 1 hr followed by LPS addition and measured after 24 hrs by cytometric bead array-based FACS analysis; format: functional, cell-based

Which results are given for `CC(C)(C)ONC(=O)C[C@H](NC(=O)CCc1ccccc1)C(=O)N[C@@H](Cc1ccc(F)cc1)C(=O)NCc1cccc2ccccc12`?
Activity [1]: 100%; inhibition (PBMC [2]): inactive; inhibition (PBMC [3]): inactive; inhibition (PBMC [4]): Active; inhibition (PBMC [5]): Active; inhibition (PBMC [6]): inactive; inhibition (PBMC [7]): inactive
